Results reported in patent US20180021373A1, “Ruthenium and Indium Binding to Gastrins” (EUPHARMA PTY LTD, priority 2015, published 2018).
Like-named read-outs stand apart in the source and are kept apart here.

How the values were obtained:
progastrin = biological target: T1, progastrin (Homo sapiens, UniProt P01350); details: competition with ^59Fe^3+ ions (Baldwin 2004); cited from earlier work
T1 sequence (P01350 27-101 limits assumed): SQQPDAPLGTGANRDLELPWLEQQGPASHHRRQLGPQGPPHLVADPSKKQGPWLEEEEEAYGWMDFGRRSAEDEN

Ggly [1] = biological target: T2, Ggly (Homo sapiens, UniProt P01350); details: cited from earlier work; for quenching of Ggly fluorescence: WO 2004/089976; for binding to Ggly: detected by measurement of Ggly fluorescence (Baldwin 2001)
gastrins = test: Screen of binding affinities of a range of metals to gastrins
Gamide = biological target: T3, Gamide (Homo sapiens, UniProt P01350); test: Absorption spectroscopy (280 nm) of metal ion binding to Gamide, fitted with BioEqs; details: for A280 (%) for first site / A280 (%) for second site / A280 (%) for mixed FeGastrinM complex: percentage absorbance at 280 nm, fitted
T3 construct: amidated gastrin34 and amidated gastrin17 (Gamide); purchased Auspep (Clayton, Australia)
Protocol: (§1) Gamide and Ggly (88 and 93% pure, respectively) were purchased from Auspep (Clayton, Australia). The impurities consisted of water and salts. Solutions of metal ions (Aldrich, St. Louis, Mo.) were prepared in 10 mM HCl, and their concentrations determined by inductively coupled plasma-atomic emission spectroscopy at the National Measurement Institute (Pymble, Australia).
(§2) The 280 nm absorption of peptides (10 μM in 10 mM sodium acetate, pH 4.0, containing 100 mM NaCl and 0.005% Tween 20) in the presence of increasing concentrations of metal ions was measured against a buffer blank, in 1 ml quartz cuvettes thermostatted at 298 K, with a Cary 5 spectrophotometer (Varian, Mulgrave, Australia).
(§3) Data (expressed as means±S.E.M.) were fitted to one-site or two-site ordered models (as per FIG. 1) with the program BioEqs.
(§4) New absorption data sets were obtained, and fitted with the program Bioeqs as described in the Materials and Methods section. […] In the 2 site competitive model gastrin binds two ferric ions with dissociation constants Kd1Fe and Kd2Fe, and two metal ions M to the same two sites with dissociation constants Kd1M and Kd2M. The dissociation constant Kd3M describes the formation of the mixed FeGastrinM complex.

Ggly [2] = biological target: T2, Ggly; test: Absorption spectroscopy (280 nm) of metal ion binding to Ggly, fitted with BioEqs; details: for A280 (%) for first site / A280 (%) for second site / A280 (%) for mixed FeGastrinM complex: Ggly, percentage absorbance at 280 nm, fitted
Protocol: as §1, §2, §3, §4

colon = details: infusion into gastrin-deficient mice (Wang 1996); cited from earlier work
Ggly [3] = biological target: T2, Ggly; details: Ggly binds two Bi^3+ ions at pH 4; read-out: affinity; cited from earlier work
Ggly [4] = biological target: T2, Ggly; details: 20 equivalents; WO 2004/089976; cited from earlier work
[5] = Gamide 10 μM, pH 4.0, 298 K, 2 site model (Fe, Ga) or 2 site competitive model vs Fe^3+ (In, Ru), read-out: Kd1 (first iron binding site)
[6] = Gamide 10 μM, pH 4.0, 298 K, 2 site or 2 site competitive model, read-out: Kd2 (second site)
[7] = read-out: Kd2 (second site), Ggly 10 μM, pH 4.0, 298 K, 2 site or 2 site competitive model
[8] = Gamide, 2 site competitive model, read-out: Kd3 (formation of mixed FeGastrinM complex)

[Fe+2] [Fe(II)]
binding to progastrin (progastrin): does not bind

[Cr+3] [Cr(III)]
quenching of Ggly fluorescence (Ggly [1]): not quench fluorescence | binding to Ggly (Ggly [1]): does not bind | binding to progastrin (progastrin): does not bind

[Ca+2] [Ca(II)]
binding to progastrin (progastrin): does not bind

[AsH3] [arsenic]
high affinity binding to gastrins (gastrins): did not show high affinity binding

[Ga+3] [Ga^3+]
Kd (Gamide; [5]): 330 nM | Kd (Gamide; [6]): 1100 nM | A280 (%) for first site (Gamide; Gamide): 100.0% | A280 (%) for second site (Gamide; Gamide): 335.8% | Kd (Gamide; Gastrin/Gamide, 2 site model, read-out: dissociation constant (Kd), first site): 330 nM | Kd (Gamide; Gastrin/Gamide, 2 site model, read-out: dissociation constant (Kd), second site): 1100 nM | Kd (Ggly [2]): 17 nM | A280 (%) for first site (Ggly [2]): 100.0% | A280 (%) for second site (Ggly [2]): 340.2% | Kd (Ggly [2]; [7]): 2300 nM

ZGPWLEEEEEAYGWMDFamide [gastrin/Gamide]
increase of colonic proliferative index (colon): no effect

[Ru+3] [Ru^3+]
Kd (Gamide; [6]): 12000 nM | Kd (Gamide; [8]): 17 nM | A280 (%) for first site (Gamide; Gamide): 100.0% | A280 (%) for mixed FeGastrinM complex (Gamide; Gamide): 264.9% | A280 (%) for second site (Gamide; Gamide): 178.6% | Kd (Ggly [2]): 1200 nM | A280 (%) for first site (Ggly [2]): 100.0% | A280 (%) for mixed FeGastrinM complex (Ggly [2]): 304.1% | A280 (%) for second site (Ggly [2]): 1714.8% | Kd (Ggly [2]; [7]): 360000 nM

[Sb] [antimony]
high affinity binding to gastrins (gastrins): did not show high affinity binding

[Bi+3] [Bi^3+]
Kd (Ggly [3]): 5800 nM

[Zn+2] [Zn(II)]
binding to progastrin (progastrin): does not bind

[Mn+2] [Mn(II)]
quenching of Ggly fluorescence (Ggly [1]): not quench fluorescence | binding to Ggly (Ggly [1]): does not bind | binding to progastrin (progastrin): does not bind

[Eu+3] [Eu(III)]
binding to progastrin (progastrin): does not bind

[Fe+3] [Fe^3+]
Kd (Gamide; [5]): 0.3 nM | Kd (Gamide; [6]): 0.085 nM | A280 (%) for first site (Gamide; Gamide): 100.0% | A280 (%) for second site (Gamide; Gamide): 313.4% | A280 (%) for first site (Ggly [2]): 100.0% | A280 (%) for second site (Ggly [2]): 365.9% | Kd (Ggly [2]; Kd1 (first iron binding site), Ggly 10 μM, pH 4.0, 298 K, 2 site model (Fe, Ga) or 2 site competitive model vs Fe^3+ (In, Ru)): 5.7 nM | Kd (Ggly [2]; Kd2 (second site), Ggly 10 μM, pH 4.0, 298 K, 2 site or 2 site competitive model): 7 nM

[Co+2] [Co(II)]
quenching of Ggly fluorescence (Ggly [1]): not quench fluorescence | binding to Ggly (Ggly [1]): does not bind | binding to progastrin (progastrin): does not bind

[Cu+2] [Cu(II)]
quenching of Ggly fluorescence (Ggly [1]): not quench fluorescence | binding to Ggly (Ggly [1]): does not bind | binding to progastrin (progastrin): does not bind

[Al+3] [Al(III)]
shift in Ggly NMR signals (Ggly [4]): nor did 20 equivalents of Al^3+ cause any significant shift in Ggly NMR signals | binding to progastrin (progastrin): does not bind

[In+3] [In^3+]
Kd (Gamide; [6]): 170 nM | Kd (Gamide; [8]): 4 nM | A280 (%) for first site (Gamide; Gamide): 100.0% | A280 (%) for mixed FeGastrinM complex (Gamide; Gamide): 217.7% | A280 (%) for second site (Gamide; Gamide): 74.1% | Kd (Ggly [2]): 96 nM | A280 (%) for first site (Ggly [2]): 100.0% | A280 (%) for mixed FeGastrinM complex (Ggly [2]): 255.6% | A280 (%) for second site (Ggly [2]): 72.8% | Kd (Ggly [2]; [7]): 14000 nM
